In assay [1] the target is glucocorticoid receptor (GR) recombinant ligand binding domain (LBD) (Homo sapiens (Human), UniProt P04150). As to the kind of experiment: GR binding fluorescence polarisation (FP) assay. To be noted: displacement of fluorescently tagged ligand. As to the method: Binding of test compounds to the glucocorticoid receptor (GR) is determined using a fluorescence polarisation (FP) assay utilising a recombinant ligand binding domain (LBD) of GR. The test compounds are assessed by their ability to displace a fluorescently tagged ligand and detection of the resulting decrease in fluorescence polarisation.
In general terms: Polarisation of emitted light reports the rotation of a fluorescent probe.

The subject of assay [2] is induction of TAT by dexamethasone in HepG2 cells. As to the kind of experiment: Hep G2 TAT assay (inhibition of dexamethasone-induced TAT). The assay is classed as cell-based, human. The note with it: challenge of 100 nM dexamethasone, IC50 converted to Ki by Cheng and Prusoff equation. As for the experimental part: Glucocorticoid mediated activation of TAT occurs by transactivation of glucocorticoid response elements in the TAT promoter by glucocorticoid receptor-agonist complex. The following protocol describes an assay for measuring induction of TAT by dexamethasone in HepG2 cells (a human liver hepatocellular carcinoma cell line; ECACC, UK).
TAT activity was measured as outlined in the literature by A. Ah et al., J. Med. Chem., 2004, 47, 2441-2452.
HepG2 cells were cultured using MEME media supplemented with 10% (v/v) foetal bovine serum; 2 mM L-glutamine and 1% (v/v) NEAA at 37° C., 5%/95% (v/v) CO2/air. The HepG2 cells were counted and adjusted to yield a density of 0.125×10^6 cells/ml in RPMI 1640 without phenol red, 10% (v/v) charcoal stripped FBS, 2 mM L-glutamine and seeded at 25,000 cells/well in 200 μl into 96 well, sterile, tissue culture micro titre plates, and incubated at 37° C., 5% CO2 for 24 hours
Growth media was removed and replaced with assay media {RPMI 1640 without phenol red, 2 mM L-glutamine+10 μM forskolin}. Test compounds were screened against a challenge of 100 nM dexamethasone. Compounds were serially half log diluted in 100% (v/v) dimethylsulphoxide from a 10 mM stock.
Test compounds were pre-incubated with cells in micro-titre plates for 30 minutes at 37° C., 5/95 (v/v) CO2/air, before the addition of 100 nM dexamethasone and then subsequently for 20 hours to allow optimal TAT induction.
HepG2 cells were then lysed with 30 μl of cell lysis buffer containing a protease inhibitor cocktail for 15 minutes at 4° C. […] After 2 hours incubation at 37° C. the reaction was terminated by the addition of 15 μl of 10M aqueous potassium hydroxide solution, and the plates incubated for a further 30 minutes at 37° C. The TAT activity product was measured by absorbance at λ 340 nm.
[compound] and fitting the data to a 4 parameter logistic equation. IC50 values were converted to Ki (equilibrium dissociation constant) using the Cheng and Prusoff equation, assuming the antagonists were competitive inhibitors with respect to dexamethasone.

The structures appear in SMILES notation.

Chain of glucocorticoid receptor (GR) recombinant ligand binding domain (LBD) (P04150 524-758): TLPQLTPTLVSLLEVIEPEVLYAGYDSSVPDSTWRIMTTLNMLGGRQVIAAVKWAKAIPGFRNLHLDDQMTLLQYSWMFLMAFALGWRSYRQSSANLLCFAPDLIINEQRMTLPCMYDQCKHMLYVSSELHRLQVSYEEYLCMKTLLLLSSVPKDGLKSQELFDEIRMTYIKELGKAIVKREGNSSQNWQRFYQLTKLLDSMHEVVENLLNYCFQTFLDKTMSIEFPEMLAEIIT

`C[C@@H]1CN(S(=O)(=O)c2cnn(C)c2)CCN1c1ccc2c(cnn2-c2ccc(F)cc2)c1` [Example 1, (R)-1-(4-fluorophenyl)-5-(2-methyl-4-((1-methyl-1H-pyrazol-4-yl)sulfonyl)piperazin-1-yl)-1H-indazole]: the IC50 (commonly the midpoint of a concentration-inhibition curve) in assay [1] was determined as 930 nM. Moreover, the affinity in assay [2], expressed as Ki, was 594 nM.

`CCCn1cc(S(=O)(=O)N2CCC(c3cc4cnn(-c5ccc(F)cc5)c4cc3C)CC2)cn1` [Example 6, 1-(4-fluorophenyl)-6-methyl-5-(1-((1-propyl-1H-pyrazol-4-yl)sulfonyl)piperidin-4-yl)-1H-indazole]: in assay [1], the IC50 was 148 nM. Moreover, the inhibition constant Ki (as a rule, a measure of affinity in units of concentration, obtained from inhibition or displacement) in assay [2] was determined as 118 nM.

For the compound `CCCn1cc(S(=O)(=O)N2CCC(c3ccc4c(cnn4-c4ccc(F)cc4)c3)C[C@H]2C)cn1` (stereo partly drawn) [Example 8, 1-(4-fluorophenyl)-5-((2R)-2-methyl-1-((1-propyl-1H-pyrazol-4-yl)sulfonyl)piperidin-4-yl)-1H-indazole], the IC50 in assay [1] came to 214 nM. This compound also had a Ki in assay [2] of 238 nM.

For `CCCn1cc(S(=O)(=O)N2CC[C@H](c3ccc4c(cnn4-c4ccc(F)cc4)c3)C[C@H]2C)cn1` [Example 10, 1-(4-fluorophenyl)-5-((2R,4S)-2-methyl-1-((1-propyl-1H-pyrazol-4-yl)sulfonyl)piperidin-4-yl)-1H-indazole], the IC50 in assay [1] came out at 214 nM. Besides, in assay [2], the affinity, expressed as Ki, was 238 nM.

As to `Cc1cc2c(cnn2-c2ccc(F)cc2)cc1C1(Cc2ccccc2)CCN(S(C)(=O)=O)C1` (stereo not drawn) [Example 16, 5-(3-benzyl-1-(methylsulfonyl)pyrrolidin-3-yl)-1-(4-fluorophenyl)-6-methyl-1H-indazole], the IC50 in assay [1] was 8 nM. Further, the Ki in assay [2] came to 32 nM.

In the case of `CCCn1cc(S(=O)(=O)N2CC[C@@](Cc3ccccc3)(c3cc4cnn(-c5ccc(F)cc5)c4cc3C)C2)cn1` [Example 17, (S)-5-(3-benzyl-1-((1-propyl-1H-pyrazol-4-yl)sulfonyl)pyrrolidin-3-yl)-1-(4-fluorophenyl)-6-methyl-1H-indazole], the IC50 in assay [1] came out at 52 nM. In addition, in assay [2], the affinity corresponds to a Ki of 23 nM.

On to `Cc1cc2c(cnn2-c2ccc(=O)n(C)c2)cc1C1(Cc2ccccc2)CCN(S(=O)(=O)c2cnn(C(F)F)c2)C1` (stereo not drawn) [Example 280, 5-(5-(3-benzyl-1-((1-(difluoromethyl)-1H-pyrazol-4-yl)sulfonyl)pyrrolidin-3-yl)-6-methyl-1H-indazol-1-yl)-1-methylpyridin-2(1H)-one], for which the Ki in assay [2] came out at 42 nM.

In the case of `COCCn1cc(S(=O)(=O)N2CCC(Cc3ccccc3)(c3cc4cnn(-c5ccc(=O)n(C)c5)c4cc3C)C2)cn1` (stereo not drawn) [Example 281, 5-(5-(3-benzyl-1-((1-(2-methoxyethyl)-1H-pyrazol-4-yl)sulfonyl)pyrrolidin-3-yl)-6-methyl-1H-indazol-1-yl)-1-methylpyridin-2(1H)-one], in assay [2], the affinity corresponds to a Ki of 75 nM.

For `Cc1cc2c(cnn2-c2ccc(=O)n(C)c2)cc1C1(Cc2ccccc2)CCN(S(=O)(=O)c2cn(C)nc2C)C1` (stereo not drawn) [Example 282, 5-(5-(3-benzyl-1-((1,3-dimethyl-1H-pyrazol-4-yl)sulfonyl)pyrrolidin-3-yl)-6-methyl-1H-indazol-1-yl)-1-methylpyridin-2(1H)-one], the Ki in assay [2] came out at 120 nM. This Ki lies about 1.6-fold higher than the previous one.

With `Cc1cc(S(=O)(=O)N2CCC(Cc3ccccc3)(c3cc4cnn(-c5ccc(=O)n(C)c5)c4cc3C)C2)n(C)n1` (stereo not drawn) [Example 283, 5-(5-(3-benzyl-1-((1,3-dimethyl-1H-pyrazol-5-yl)sulfonyl)pyrrolidin-3-yl)-6-methyl-1H-indazol-1-yl)-1-methylpyridin-2(1H)-one], the Ki in assay [2] amounted to 64 nM. Compared with the last compound, the Ki is about 1.9-fold lower.

As for `Cc1cc2c(cnn2-c2ccc(=O)n(C)c2)cc1C1(Cc2ccccc2)CCN(S(=O)(=O)c2cnn(C)c2C)C1` (stereo not drawn) [Example 284, 5-(5-(3-benzyl-1-((1,5-dimethyl-1H-pyrazol-4-yl)sulfonyl)pyrrolidin-3-yl)-6-methyl-1H-indazol-1-yl)-1-methylpyridin-2(1H)-one], the affinity in assay [2] corresponds to a Ki of 58 nM.

For `Cc1cc2c(cnn2-c2ccc(=O)n(C)c2)cc1C1(Cc2ccccc2)CCN(S(=O)(=O)c2nccn2C)C1` (stereo not drawn) [Example 285, 5-(5-(3-benzyl-1-((1-methyl-1H-imidazol-2-yl)sulfonyl)pyrrolidin-3-yl)-6-methyl-1H-indazol-1-yl)-1-methylpyridin-2(1H)-one], the affinity in assay [2] corresponds to a Ki of 82 nM.

The compound `CCn1cc(S(=O)(=O)N2CCC(Cc3ccccc3)(c3cc4cnn(-c5ccc(=O)n(C)c5)c4cc3C)C2)nn1` (stereo not drawn) [Example 291, 5-(5-(3-benzyl-1-((1-ethyl-1H-1,2,3-triazol-4-yl)sulfonyl)pyrrolidin-3-yl)-6-methyl-1H-indazol-1-yl)-1-methylpyridin-2(1H)-one] had a Ki in assay [2] of 110 nM. This Ki and that of the compound before are within 1.5-fold of each other.

The compound `Cc1cc2c(cnn2-c2ccc(=O)n(C)c2)cc1C1(Cc2ccccc2)CCN(S(=O)(=O)c2cnn(CC(C)C)c2)C1` (stereo not drawn) [Example 319, 5-(5-(3-benzyl-1-((1-isobutyl-1H-pyrazol-4-yl)sulfonyl)pyrrolidin-3-yl)-6-methyl-1H-indazol-1-yl)-1-methylpyridin-2(1H)-one] showed a Ki in assay [2] of 46 nM.

`CCc1cc2c(cnn2-c2ccc(=O)n(C)c2)cc1C1(Cc2ccccc2)CCN(S(=O)(=O)c2cnn(C)n2)C1` (stereo not drawn) [Example 333, 5-(5-(3-benzyl-1-((2-methyl-2H-1,2,3-triazol-4-yl)sulfonyl)pyrrolidin-3-yl)-6-ethyl-1H-indazol-1-yl)-1-methylpyridin-2(1H)-one]: the Ki in assay [2] is 41 nM.

In turn, `Cn1ncc(S(=O)(=O)N2CCC(Cc3ccccc3)(c3cc4cnn(-c5ccc(F)cc5)c4cc3C#N)C2)n1` (stereo not drawn) [Example 334, 5-(3-benzyl-1-((2-methyl-2H-1,2,3-triazol-4-yl)sulfonyl)pyrrolidin-3-yl)-1-(4-fluorophenyl)-1H-indazole-6-carbonitrile] displayed an inhibition constant Ki in assay [2] of 52 nM. This Ki and that of the compound before are within 1.5-fold of each other.

In assay [2], `Cc1cc2c(cnn2-c2ccc(F)cc2)cc1C1(/C=C/c2ccccc2)CCN(S(=O)(=O)c2cnn(C)c2)C1` (stereo not drawn) [Example 342, (E)-1-(4-fluorophenyl)-6-methyl-5-(1-((1-methyl-1H-pyrazol-4-yl)sulfonyl)-3-styrylpyrrolidin-3-yl)-1H-indazole] displayed a Ki of 110 nM.

`Cc1cc2c(cnn2-c2ccc(F)cc2)cc1C1(CCc2ccccc2)CCN(S(=O)(=O)c2cnn(C)c2)C1` (stereo not drawn) [Example 343, 1-(4-fluorophenyl)-6-methyl-5-(1-((1-methyl-1H-pyrazol-4-yl)sulfonyl)-3-phenethylpyrrolidin-3-yl)-1H-indazole] registered a Ki in assay [2] of 120 nM.

Consider `Cc1cc2c(cnn2-c2ccc(F)cc2)cc1C1(COc2ccccc2)CCN(S(=O)(=O)c2cnn(C)c2)C1` (stereo not drawn) [Example 344, 1-(4-fluorophenyl)-6-methyl-5-(1-((1-methyl-1H-pyrazol-4-yl)sulfonyl)-3-(phenoxymethyl)pyrrolidin-3-yl)-1H-indazole], for which affinity in assay [2] was put at a Ki of 97 nM.

`Cc1cc2c(cnn2-c2ccc(F)cc2)cc1C1(C(=O)c2ccccc2)CCN(S(=O)(=O)c2cnn(C)c2)C1` (stereo not drawn) [Example 345, (3-(1-(4-fluorophenyl)-6-methyl-1H-indazol-5-yl)-1-((1-methyl-1H-pyrazol-4-yl)sulfonyl)pyrrolidin-3-yl)(phenyl)methanone] returned a Ki in assay [2] of 220 nM.

For `Cc1cc2c(cnn2-c2ccc(F)cc2)cc1C1(CCCc2ccccc2)CCN(S(=O)(=O)c2cnn(C)c2)C1` (stereo not drawn) [Example 346, 1-(4-fluorophenyl)-6-methyl-5-(1-((1-methyl-1H-pyrazol-4-yl)sulfonyl)-3-(3-phenylpropyl)pyrrolidin-3-yl)-1H-indazole], in assay [2], the affinity, expressed as Ki, was 140 nM.

The values are drawn from US11787780B2 (CORCEPT THERAPEUTICS INCORPORATED, priority 2020, dated 2023).
